Source: article PMC8563940 (Scientific Reports, 2021)

Tests used:
Format in all cases: biochemical
[1] = biological target: T1, human butyrylcholinesterase (hBChE) (Homo sapiens, UniProt P06276); assay: Progressive inhibition of hBChE by organophosphorus pesticides (Ellman method); details: for kinact/KI: read-out: ki, overall second-order rate constant of inhibition (converted)
T1 construct: hBChE derived from purified human plasma; from tissue; host or cells: human plasma

[2] = biological target: T2, human acetylcholinesterase (hAChE) (Homo sapiens, UniProt P22303); assay: Progressive inhibition of hAChE by organophosphorus pesticides (Ellman method); details: 25 °C, ± SEM; for kinact/KI: read-out: ki, overall second-order rate constant of inhibition (converted)
T2 construct: made in house

[3] = biological target: methamidophos-inhibited hAChE (Homo sapiens, UniProt P22303)
[4] = biological target: fenamiphos-inhibited hAChE (Homo sapiens, UniProt P22303)
human AChE = human AChE (Homo sapiens, UniProt P22303)
human AChE, sequence (P22303 32-614): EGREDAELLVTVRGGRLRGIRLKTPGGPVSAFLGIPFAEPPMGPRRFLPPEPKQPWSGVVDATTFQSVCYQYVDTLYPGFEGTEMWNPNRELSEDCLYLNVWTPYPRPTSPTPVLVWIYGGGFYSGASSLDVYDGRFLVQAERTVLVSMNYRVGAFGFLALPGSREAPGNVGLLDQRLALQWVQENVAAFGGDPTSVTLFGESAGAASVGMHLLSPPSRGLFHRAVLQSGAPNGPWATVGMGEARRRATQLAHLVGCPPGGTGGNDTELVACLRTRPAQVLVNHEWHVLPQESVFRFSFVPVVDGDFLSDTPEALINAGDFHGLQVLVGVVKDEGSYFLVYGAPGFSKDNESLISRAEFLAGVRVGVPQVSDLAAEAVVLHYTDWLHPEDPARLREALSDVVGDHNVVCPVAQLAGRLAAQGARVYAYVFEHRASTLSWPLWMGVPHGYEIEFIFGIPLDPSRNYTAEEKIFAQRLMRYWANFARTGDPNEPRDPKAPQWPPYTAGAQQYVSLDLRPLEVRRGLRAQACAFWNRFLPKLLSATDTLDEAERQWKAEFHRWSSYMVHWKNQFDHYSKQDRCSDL

fenamiphos-inhibited hAChE, sequence (P22303 32-614): as above
T2 sequence (P22303 32-614): as above
methamidophos-inhibited hAChE, sequence (P22303 32-614): as above
T1 sequence (P06276 29-602): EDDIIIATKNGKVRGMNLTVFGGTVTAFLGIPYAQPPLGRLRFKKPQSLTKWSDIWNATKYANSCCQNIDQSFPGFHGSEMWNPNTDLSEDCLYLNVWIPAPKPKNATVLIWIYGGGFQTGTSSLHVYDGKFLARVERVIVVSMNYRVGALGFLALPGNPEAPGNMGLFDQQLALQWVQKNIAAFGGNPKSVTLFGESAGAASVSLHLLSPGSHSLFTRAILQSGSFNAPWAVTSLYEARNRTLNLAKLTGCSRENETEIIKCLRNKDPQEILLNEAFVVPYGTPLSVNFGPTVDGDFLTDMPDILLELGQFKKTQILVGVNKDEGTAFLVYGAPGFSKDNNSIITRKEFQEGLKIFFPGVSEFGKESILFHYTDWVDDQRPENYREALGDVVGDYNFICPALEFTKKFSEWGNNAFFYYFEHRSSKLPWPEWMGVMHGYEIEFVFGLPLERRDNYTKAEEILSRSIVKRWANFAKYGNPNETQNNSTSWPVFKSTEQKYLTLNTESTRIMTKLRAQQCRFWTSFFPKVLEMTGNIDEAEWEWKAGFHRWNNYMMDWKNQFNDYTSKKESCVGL

| Structure (SMILES) | kmax, first-order inhibition constant ([1]; hBChE, 25 °C, ± SEM) | Reactmax (screening) [3] | Reactmax, maximal percentage of reactivation [3] | k2, maximal first-order reactivation rate constant [3] | kobs, observed reactivation rate (screening) [3] | kr, overall second-order reactivation rate constant [3] | t, time to achieve maximum of reactivation (screening) [3] | Reactmax (screening) [4] | Reactmax, maximal percentage of reactivation [4] | k2, maximal first-order reactivation rate constant [4] | kobs, observed reactivation rate (screening) [4] | kr, overall second-order reactivation rate constant [4] | t, time to achieve maximum of reactivation (screening) [4] | Inhibition of AChE with oxime (human AChE) | other results |
| --- | --- | --- | --- | --- | --- | --- | --- | --- | --- | --- | --- | --- | --- | --- | --- |
| CCCSP(=O)(OCC)SCCC [Ethoprophos, ethoprophos] | 0.58 ± 0.05 min⁻¹ |  |  |  |  |  |  |  |  |  |  |  |  |  | Ki [1]: 36.4 ± 6.68 µM |
| CCOP(=O)(NC(C)C)Oc1ccc(SC)c(C)c1 (stereo not shown) [Fenamiphos, fenamiphos] | 0.16 ± 0.01 min⁻¹ |  |  |  |  |  |  |  |  |  |  |  |  |  | ki, overall second-order rate constant of inhibition [2]: 3,982 ± 264 min^-1 M^-1; kmax, first-order inhibition constant [2]: 0.21 ± 0.01 min⁻¹; ki, overall second-order rate constant of inhibition ([1]; hBChE, 25 °C, ± SEM): 35,890 ± 8,484 min^-1 M^-1 |
| COP(N)(=O)SC (stereo not shown) [Methamidophos, methamidophos] |  |  |  |  |  |  |  |  |  |  |  |  |  |  | kinact/KI [2]: 46 M⁻¹ s⁻¹; ki lower than that of fenamiphos ([1]; hBChE): 90 fold; kinact/KI ([1]; hBChE, 25 °C, ± SEM): 6.43 M⁻¹ s⁻¹ |
| C[n+]1ccccc1C=NO [Oxime 2-PAM] |  | 86% | 80% | 2.7 ± 0.2 min⁻¹ | 1.1558 min -1 | 42,190 ± 2,547 min^−1 M^−1 | 0.36 h | 46% | 70% | 0.003 ± 0.0002 min⁻¹ | 0.0011 min -1 | 0.125 ± 0.025 M⁻¹ s⁻¹ | 20 h | 11% |  |
| ON=Cc1cc[n+](CCn2cc(C[n+]3ccccc3C=NO)nn2)cc1 [Oxime 14A] |  | 68% | 85% | 22.2 ± 3.8 min⁻¹ | 6.7944 min -1 | 108,300 ± 17,090 min^−1 M^−1 | 0.08 h | 42% | 45% | 0.069 ± 0.034 min⁻¹ | 0.0062 min -1 | 1.43 ± 0.413 M⁻¹ s⁻¹ | 3 h | 10% |  |
| CCOP(=S)(OCC)SCn1c(=O)oc2cc(Cl)ccc21 [Phosalone, phosalone] | 0.23 ± 0.02 min⁻¹ |  |  |  |  |  |  |  |  |  |  |  |  |  | kinact/KI [2]: 35.5 M⁻¹ s⁻¹; Ki [1]: 97.9 ± 15.3 µM; kinact/KI ([1]; hBChE, 25 °C, ± SEM): 38.9 M⁻¹ s⁻¹ |
| ON=Cc1cc[n+](CCC[n+]2ccc(C=NO)cc2)cc1 [TMB-4] |  | 83% | 80% | 16.5 ± 6.6 min⁻¹ | 4.2338 min -1 | 116,600 ± 12,380 min^−1 M^−1 | 0.16 h | 49% | 65% | 0.082 ± 0.010 min⁻¹ | 0.0177 min -1 | 2.237 ± 0.293 M⁻¹ s⁻¹ | 1 h | 8% |  |
